Consider 3 molecules from BindingDB's records for doi:10.1021/jm00028a001 (University of Pennsylvania, 1994).

This test addresses T1, Dimer of Gag-Pol polyprotein [489-587] (Human immunodeficiency virus 1, UniProt P12497).
T1 construct: 489-587
Briefly: Protease Inhibition Assay. The note with it: pH 5.5; 30 °C. Here is the method: Sensitivity of HIV-1 protease activity to protease inhibitors was determined by a peptide substrate cleavage assay. Protease products were analyzed on a reverse-phase high-pressure liquid chromatograph.
For orientation: IC50 means the concentration needed to halve the response being measured. A high value points to a need for much substance. `CCC(C)[C@@H]1NC(=O)[C@@H](NC[C@@H](O)[C@H](Cc2ccc(O)cc2)NC(=O)[C@H](C(C)C)N2CCCC2=O)Cc2ccc(cc2)OCCCNC1=O` (stereo partly drawn) [(2S)-N-[(2S,3R)-4-{[(8S,11S)-8-[(2R)-butan-2-yl]-7,10-dioxo-2-oxa-6,9-diazabicyclo[11.2.2]heptadeca-1(15),13,16-trien-11-yl]amino}-3-hydroxy-1-(4-hydroxyphenyl)butan-2-yl]-3-methyl-2-(2-oxopyrrolidin-1-yl)butanamide] showed an IC50 of 10 nM. Under `CC(C)(C)NC(=O)[C@@H]1CCCCN1C[C@@H](O)[C@@H]1Cc2ccc(cc2)OCCCC(=O)N[C@@H](CC(N)=O)C(=O)N1` [Peptidomimetic inhibitor 4] stands 0.6 nM. Under `CC(C)C[C@@]1(C2C=N[C@@](Cc3ccccc3)(C[C@H](O)[C@H](Cc3ccccc3)NC(=O)O[C@@H]3CCOC3)C2=O)N=CC([C@@H](Cc2ccccc2)C(N)=O)C1=O` (stereo partly drawn) [(3R)-oxolan-3-yl N-[(2S,3S)-4-[(2S)-2-benzyl-4-[(2S)-4-[(1R)-1-carbamoyl-2-phenylethyl]-2-(2-methylpropyl)-3-oxo-2,3-dihydro-1H-pyrrol-2-yl]-3-oxo-2,3-dihydro-1H-pyrrol-2-yl]-3-hydroxy-1-phenylbutan-2-yl]carbamate] stands 1.3 nM.
